In patent US20250051314A1, “SMALL MOLECULE INHIBITORS OF INTERFERON GAMMA SIGNALING” (INSTITUT CURIE, priority 2021, published 2025):

What was measured:
Type in all cases: cell-based
[1] = tested on: IFNγ-induced tyrosine phosphorylation of STAT1 (pSTAT1); assay: JAK/STAT signalling activation assay (pSTAT1/tSTAT1 immunoblot); conditions: Hela cells; for inhibition of phosphorylation of STAT, dose-response in words: different concentrations; for inhibition of phosphorylation of STAT, dose-response in words / inhibition of IFNγ-induced pSTAT1 (IFNγ-signaling), result in words: 20 min pre-incubation with IFNγ; for inhibition of IFNγ-induced pSTAT1 (IFNγ-signaling), result in words: screening at 40 μM; for IC50: Homo sapiens, 1000 U/ml IFNγ pre-incubated 20 min with compound, non-linear curve fit, n=3, read-out: IC50 pSTAT1 inhibition
Description: Cell culture: Hela cells were grown at 37° C. under 5% CO2 in DMEM high glucose Glutamax (Gibco, Life Technologies) complemented with 10% FBS (v/v) (Gibco, Life Technologies) and supplemented with 5 mM pyruvate (v/v) (Gibco, Life Technologies) and 1% penicillin-streptomycin (v/v) (Gibco, Life Technologies). Primary antibodies: Mouse anti-phospho-STAT1 Tyr701 (BD Transduction Laboratories, 612132, RRID: AB_399503, 1:1000 for western blot), rabbit anti-STAT1 (Cell Signaling, 9172, RRID: AB_2198300, 1:1000 for western blot), mouse anti-alpha-tubulin (Sigma, clone B512, T5168, RRID: AB_86546, 1:5000 for western blot); rabbit anti-IFN-γ ([Abcam, EPR1108, ab133566, 1:1000 for western blot). Secondary antibodies anti-mouse-Alexa488 (Invitrogen, A21202), anti-mouse-HRP (Jackson ImmunoResearch, 715-035-151) and anti-rabbit-HRP (Jackson ImmunoResearch, […]) were used at 1:5000 for western blot.
20 mM stock solution of compounds in DMSO were prepared and stored at −20° C.
Hela cells were treated 20 min at 37° C. with mixture containing 1000 U·ml^−1 IFNγ in DMEM with 0.2% BSA preincubated for 20 min at 37° C. with DMSO (as control) for JAK/STAT stimulation. For screening compounds, 40 μM compounds were pre-incubated with 1000 U·ml^−1 of IFNγ in DMEM containing 0.2% BSA for 20 min at 37° C. before adding it to Hela cells. 10-fold 7 or 5 serial dilutions from 400 μM of compounds were made in DMEM containing 1000 U·ml^−1 of IFNγ and 0.2% BSA, and incubated for 20 min before stimulating JAK/STAT for finding IC50 towards IFNγ.
Cells were lysed in sample buffer (62.5 mM Tris/HCl, […], 2% v/v SDS, 10% glycerol v/v, 40 mM dithiothreitol, and 0.03% w/v phenol red). Samples were analysed by SDS-PAGE on 4-15% Mini-PROTEAN* TGX™ Precast Gels or on 4-15% Mini-PROTEAN′ TGX™ Stain Free Gel (Bio-Rad) and immuno-blotted with the indicated primary antibodies and horseradish peroxidase- or Alexa488-conjugated secondary antibodies. […] Acquisition and quantification were performed with the ChemiDoc MP Imaging System (Bio-Rad). Phosphorylated protein over total protein ratio was determined on the same blot using horseradish peroxidase and Alexa488 signals.

[2] = tested on: formin-mediated actin assembly; assay: In cellulo actin nucleation assay (phalloidin staining, cell area); conditions: Hela cells, 40 μM, 20 min
Description: Hela cells grown on coverslips were treated with DMEM containing 0.2% BSA and the compounds (40 μM) for 20 min at 37° C., washed with cold PBS (two times) and then fixed with 4% paraformaldehyde for 30 min at room temperature, quenched in 50 mM NH4Cl for 10 min and permeabilized with 0.05% saponin in 0.2% BSA in PBS for 20 min. Cells were incubated with 165 nM phalloidin for 1 h at room temperature. DAPI containing fluoromount-G was used to mount coverslips onto glass slide. Cell areas were measured with ImageJ software (NIH).

Hela cells = assay: Cell viability assay (CellTiter-Blue); conditions: Hela cells treated for 24 h; for IC50: Homo sapiens, n=3
Description: Cell viability assay was carried out by plating 10,000 cells/well in 96-well plates. 3-Fold 8 serial dilutions of the compounds from 3 mM were made in DMEM. HeLa cells were treated for 24 h with the compounds of different concentrations made. In case of preincubation with IFNγ, 6000 U·ml^−1 of IFNγ per concentration of compounds were used and incubated for 20 min. According to manufacturer's protocol,
CellTiter-Blue® reagent was added after 24 h treatment and cells were incubated for 3 h before recording fluorescence intensities (λex. 560/20 nm; λem. 590/10 nm) using a Perkin Elmer Wallac 1420 Victor2 Microplate Reader.

C#Cc1ccc(C=C2C(=O)NC(=S)N(c3cccc(Br)c3)C2=O)o1 [Compound 5a, (1-(3-bromophenyl)-5-((5-ethynylfuran-2-yl)methylene)-2-thioxodihydropyrimidine-4,6(1H,5H)-dione)]
inhibition of phosphorylation of STAT, dose-response in words [1]: dose-dependent manner in the low micromolar range | inhibition of IFNγ-induced pSTAT1 (IFNγ-signaling), result in words [1]: inhibited IFNγ-induced pSTAT1 | IC50 [1]: 1.08 µM | formin targeting / actin assembly (phalloidin pattern, cell area), result in words [2]: deprived of formin targeting | cytotoxicity at effective doses (Hela cells): did not show significant cytotoxicity at effective doses | IC50 (Hela cells): 331 µM

C#Cc1ccc(C=C2C(=O)NC(=S)N(c3cccc(F)c3)C2=O)o1 [Compound 5b, 5-((5-ethynylfuran-2-yl)methylene)-1-(3-fluorophenyl)-2-thioxodihydropyrimidine-4,6(1H,5H)-dione]
inhibition of phosphorylation of STAT, dose-response in words [1]: dose-dependent manner in the low micromolar range | IC50 [1]: 1.05 µM | cytotoxicity at effective doses (Hela cells): did not show significant cytotoxicity at effective doses | IC50 (Hela cells): 95 µM

C#Cc1ccc(C=C2C(=O)N(c3cccc(Br)c3)C(=S)N(c3cccc(Br)c3)C2=O)o1 [Compound 5j, 1,3-bis(3-bromophenyl)-5-((5-ethynylfuran-2-yl)methylene)-2-thioxodihydropyrimidine-4,6(1H,5H)-dione]
inhibition of phosphorylation of STAT, dose-response in words [1]: dose-dependent manner in the low micromolar range | inhibition of IFNγ-induced pSTAT1 (IFNγ-signaling), result in words [1]: biologically active compounds | IC50 [1]: 4.63 µM | cytotoxicity at effective doses (Hela cells): did not show significant cytotoxicity at effective doses | IC50 (Hela cells): 308 µM

C#Cc1ccc(C=C2C(=O)N(c3cccc(F)c3)C(=S)N(c3cccc(F)c3)C2=O)o1 [Compound 5k, 5-((5-ethynylfuran-2-yl)methylene)-1,3-bis(3-fluorophenyl)-2-thioxodihydropyrimidine-4,6(1H,5H)-dione]
inhibition of phosphorylation of STAT, dose-response in words [1]: dose-dependent manner in the low micromolar range | IC50 [1]: 5.97 µM | cytotoxicity at effective doses (Hela cells): did not show significant cytotoxicity at effective doses | IC50 (Hela cells): 95 µM

C#Cc1ccc(C=C2C(=O)NC(=O)N(c3cccc(Br)c3)C2=O)o1 [Compound 5l, 1-(3-bromophenyl)-5-((5-ethynylfuran-2-yl)methylene)pyrimidine-2,4,6(1H,3H,5H)-trione]
inhibition of IFNγ-induced pSTAT1 (IFNγ-signaling), result in words [1]: retained its activity against both IFNγ-signaling and formin | formin targeting / actin assembly (phalloidin pattern, cell area), result in words [2]: retained its activity against both IFNγ-signaling and formin

Cc1ccc(C=C2C(=O)NC(=S)N(c3cccc(F)c3)C2=O)o1 [Compound 6a, 1-(3-fluorophenyl)-5-((5-methylfuran-2-yl)methylene)-2-thioxodihydropyrimidine-4,6(1H,5H)-dione]
formin targeting / actin assembly (phalloidin pattern, cell area), result in words [2]: inhibited either IFNγ-signaling or formins

O=C1NC(=S)N(c2cccc(F)c2)C(=O)C1=Cc1ccc(Cl)o1 [Compound 6b, 5-((5-chlorofuran-2-yl)methylene)-1-(3-fluorophenyl)-2-thioxodihydropyrimidine-4,6(1H,5H)-dione]
inhibition of IFNγ-induced pSTAT1 (IFNγ-signaling), result in words [1]: inhibited either IFNγ-signaling or formins

O=C1NC(=S)N(c2cccc(F)c2)C(=O)C1=Cc1ccc(Br)o1 [Compound 6i, 5-((5-bromofuran-2-yl)methylene)-1-(3-fluorophenyl)-2-thioxodihydropyrimidine-4,6(1H,5H)-dione]
formin targeting / actin assembly (phalloidin pattern, cell area), result in words [2]: inhibited either IFNγ-signaling or formins

O=C1NC(=O)N(c2cccc(Br)c2)C(=O)C1=Cc1ccco1 [Compound 6l, 1-(3-bromophenyl)-5-(furan-2-ylmethylene)pyrimidine-2,4,6(1H,3H,5H)-trione]
inhibition of IFNγ-induced pSTAT1 (IFNγ-signaling), result in words [1]: did not show IFNγ-signaling inhibitory activity

O=C1NC(=S)N(c2cccc(Br)c2)C(=O)C1=Cc1ccco1 [SMIFH2, 1-(3-Bromophenyl)-5-(2-furylmethylene)-2-thioxo-hexahydropyrimidine-4,6-dione, reference compound]
inhibition of IFNγ-induced pSTAT1 (IFNγ-signaling), result in words [1]: capable of inhibiting IFNγ signaling
